According to patent US20140328951A1, “Composition for Preventing and Treating Vision Deterioration and Age-Related Macular Degeneration through Retinal Repair Using Ginseng/Red Ginseng Extracts and Ginsenoside” (GBIOMIX. CO., LTD., priority 2011, published 2014):

Legend:
human Bruch's membrane = experiment: Hydraulic conductivity of Bruch's membrane in open-type Ussing chambers; settings: 24 hours incubation
Experimental: Bruch's samples were mounted in open-type Ussing chambers and perfused with Tris-HCl buffer. Eluted samples (fluid coming through Bruch's membrane) were collected and measured for fluid transport. Control was perfused with Tris-HCl buffer whilst others were perfused with ginseng fractions for 24 hours.
Transport was tested as described in Example 3, and measured after 24 hours incubation with ginsenosides.
Transport was tested as described in Example 3, and measured after 24 hours incubation with 10% red ginseng extract.

[1] = system: Retinal Pigment Epithelium (RPE) of Pig Eyes; experiment: Release of MMPs from RPE of pig eyecups (gelatin zymography); type: cell-based; settings: pig eyecup
Experimental: Pig whole eyecup preparations of RPE were used in these experiments. Standard buffer for incubations utilised […] supplemented with foetal calf serum and antibiotics. Eyecups were incubated in this basal medium as control and in medium containing ginseng extract. Following a 6-24 hour incubation, the incubating medium was collected and subjected to gelatin zymography to analyse the type and level of MMP species present. In control medium, both pro- and active MMP 2&9 species are released continuously from the RPE (FIG. 7). […] This effect of KRG is conducive for regenerating Bruch's membrane. […]

[2] = 6-24 hour incubation, gelatin zymography, Ginseng extract at 10%

Row | SMILES | Effect on hydraulic conductivity of human Bruch's membrane (in words) (human Bruch's membrane; 190 ug/ml) | Fold change in hydraulic conductivity over basal (human Bruch's membrane; 190 ug/ml, 5 donors) | Release of active MMP2 from the RPE [1, 2] | Release of pro-MMP2 from the RPE [1, 2] | Release of pro-MMP9 from the RPE [1, 2] | Effect on hydraulic conductivity of human Bruch's membrane (in words) (human Bruch's membrane; 200 ug/ml) | Fold change in hydraulic conductivity over basal (human Bruch's membrane; 200 ug/ml, 1 donor) | Activated HMW1 level [1, 2] | Release of active MMP9 from the RPE [1, 2] | Release of MMPs from the RPE (overall) ([1]; FIG. 7)
1 | CC(C)=CCC[C@](C)(O[C@@H]1O[C@H](CO)[C@@H](O)[C@H](O)[C@H]1O)[C@H]1CC[C@]2(C)[C@@H]1[C@H](O)C[C@@H]1[C@@]3(C)CC[C@H](O)C(C)(C)[C@@H]3CC[C@]12C [Compound K, 20-O-β-d-glucopyranosyl-20(S)-protopanaxadiol] | increased hydraulic conductivity | 1.45 ± 0.15 | consistently increased | consistently increased | consistently increased |  |  |  |  | 
2 | CC(C)=CCC[C@](C)(O[C@@H]1O[C@H](CO[C@@H]2O[C@H](CO)[C@@H](O)[C@H](O)[C@H]2O)[C@@H](O)[C@H](O)[C@H]1O)[C@H]1CC[C@]2(C)[C@@H]1[C@H](O)C[C@@H]1[C@@]3(C)CC[C@H](O[C@@H]4O[C@H](CO)[C@@H](O)[C@H](O)[C@H]4O[C@@H]4O[C@H](CO)[C@@H](O)[C@H](O)[C@H]4O)C(C)(C)[C@@H]3CC[C@]12C [Rb1] |  |  | did increase | did increase | effective in reducing the level of pro-MMP9 | increased | 1.27 | increased activated HMW1 levels | without effect | 
3 | CC(C)=CCC[C@](C)(O[C@@H]1O[C@H](CO)[C@@H](O)[C@H](O)[C@H]1O)[C@H]1CC[C@]2(C)[C@@H]1[C@H](O)C[C@@H]1[C@@]3(C)CC[C@H](O)C(C)(C)[C@@H]3[C@@H](O[C@@H]3O[C@H](CO)[C@@H](O)[C@H](O)[C@H]3O)C[C@]12C [Rg1] |  |  |  |  | increased the amount of pro-MMP9 | increased | 1.2 |  |  | without effect
